Laboratory results published in ChEMBL document CHEMBL1201862, “PubChem BioAssay data set” (2004).
Calls of active or inactive are those of the source.

Key:
[1] = target: Sentrin-specific protease 1 (Homo sapiens, UniProt Q9P0U3); assay: Dose response confirmation of small molecule inhibitors of the catalytic domain of the SUMO protease, SENP1 in a FRET assay.; assay type: functional; conditions: read-out: IC50_Mean
[2] = target: T1, Tyrosine-protein phosphatase non-receptor type 11 (Homo sapiens, UniProt Q06124); assay: PTPN11 enzyme inhibitors – biochemical, selectivity assay for STEP inhibitor project, dose response (AID 602367); assay type: functional; conditions: read-out: IC50_Mean
T1 sequence (Q06124 whole entry): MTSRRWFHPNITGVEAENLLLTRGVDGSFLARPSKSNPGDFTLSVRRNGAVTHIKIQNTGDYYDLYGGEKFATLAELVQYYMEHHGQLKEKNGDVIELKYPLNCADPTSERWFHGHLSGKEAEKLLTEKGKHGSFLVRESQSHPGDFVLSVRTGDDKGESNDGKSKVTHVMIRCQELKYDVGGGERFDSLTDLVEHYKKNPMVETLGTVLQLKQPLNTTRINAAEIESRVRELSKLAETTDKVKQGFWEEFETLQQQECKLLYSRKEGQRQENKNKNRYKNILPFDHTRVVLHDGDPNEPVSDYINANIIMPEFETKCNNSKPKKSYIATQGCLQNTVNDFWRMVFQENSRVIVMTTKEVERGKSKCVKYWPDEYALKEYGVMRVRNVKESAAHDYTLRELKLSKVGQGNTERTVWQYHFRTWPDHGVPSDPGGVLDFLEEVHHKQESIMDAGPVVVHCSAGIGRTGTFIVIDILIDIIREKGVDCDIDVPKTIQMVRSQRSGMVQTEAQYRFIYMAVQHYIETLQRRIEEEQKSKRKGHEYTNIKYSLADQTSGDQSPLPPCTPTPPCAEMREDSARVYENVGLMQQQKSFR

[3] = target: T2, Tyrosine-protein phosphatase non-receptor type 5 (Homo sapiens, UniProt P54829); assay: PTPN5 enzyme inhibition – biochemical, fluorescence intensity, uHTS hits, confirmation (AID 602372); assay type: functional; conditions: read-out: IC50_Mean
T2 sequence (P54829 whole entry): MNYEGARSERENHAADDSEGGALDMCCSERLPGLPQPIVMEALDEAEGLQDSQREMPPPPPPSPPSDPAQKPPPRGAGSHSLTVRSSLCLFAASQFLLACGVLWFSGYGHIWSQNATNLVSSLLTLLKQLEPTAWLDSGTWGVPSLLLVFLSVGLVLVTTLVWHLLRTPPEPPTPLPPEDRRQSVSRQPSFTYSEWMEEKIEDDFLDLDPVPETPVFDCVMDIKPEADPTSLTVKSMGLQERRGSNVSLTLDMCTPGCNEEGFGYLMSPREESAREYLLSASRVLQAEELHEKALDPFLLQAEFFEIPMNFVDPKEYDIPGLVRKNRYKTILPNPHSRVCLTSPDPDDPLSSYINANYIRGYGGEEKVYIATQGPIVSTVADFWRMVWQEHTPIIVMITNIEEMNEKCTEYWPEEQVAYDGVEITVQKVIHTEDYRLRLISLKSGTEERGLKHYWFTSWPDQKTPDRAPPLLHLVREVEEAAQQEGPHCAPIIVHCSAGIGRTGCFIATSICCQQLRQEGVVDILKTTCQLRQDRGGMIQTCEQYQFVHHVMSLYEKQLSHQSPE

[4] = target: Low molecular weight phosphotyrosine protein phosphatase (Homo sapiens, UniProt P24666); assay type: functional; conditions: read-out: IC50_Mean;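 also: Dose-response confirmation assay measuring inhibition of LMPTP enzyme activity by fluorescence intensity read-out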
[5] = target: T3, Tyrosine-protein phosphatase non-receptor type 22 (Homo sapiens, UniProt Q9Y2R2); assay: lymphoid phosphatase LYP inhibitors – biochemical, selectivity assay for STEP inhibitor project, dose response (AID 624241); assay type: functional
T3 sequence (Q9Y2R2 whole entry): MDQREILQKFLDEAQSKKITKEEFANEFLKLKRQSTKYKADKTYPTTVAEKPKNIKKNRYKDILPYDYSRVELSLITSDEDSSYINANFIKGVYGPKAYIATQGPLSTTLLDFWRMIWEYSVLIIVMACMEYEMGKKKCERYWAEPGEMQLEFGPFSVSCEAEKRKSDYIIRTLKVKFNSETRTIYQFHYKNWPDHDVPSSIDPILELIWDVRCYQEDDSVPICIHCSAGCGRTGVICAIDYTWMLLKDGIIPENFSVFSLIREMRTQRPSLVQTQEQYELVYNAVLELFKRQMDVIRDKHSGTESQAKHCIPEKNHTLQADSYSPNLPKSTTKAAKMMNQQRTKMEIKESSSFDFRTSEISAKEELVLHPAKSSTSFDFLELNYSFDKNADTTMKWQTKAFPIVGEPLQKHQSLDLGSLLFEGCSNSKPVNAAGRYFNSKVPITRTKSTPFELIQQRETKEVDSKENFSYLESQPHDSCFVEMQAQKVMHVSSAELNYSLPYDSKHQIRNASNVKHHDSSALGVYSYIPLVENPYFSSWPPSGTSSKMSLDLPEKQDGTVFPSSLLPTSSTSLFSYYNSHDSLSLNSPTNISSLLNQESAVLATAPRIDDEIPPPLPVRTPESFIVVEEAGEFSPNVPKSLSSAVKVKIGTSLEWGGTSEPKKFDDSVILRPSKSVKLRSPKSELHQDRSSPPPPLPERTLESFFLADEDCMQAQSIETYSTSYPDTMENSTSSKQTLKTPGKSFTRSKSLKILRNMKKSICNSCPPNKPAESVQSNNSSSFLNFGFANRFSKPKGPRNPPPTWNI

[6] = target: Dual specificity protein phosphatase 3 (Homo sapiens, UniProt P51452); assay: VHR phosphatase inhibition, dose response, selectivity assay for STEP inhibitor project, biochemical (AID 602374); assay type: functional; conditions: read-out: IC50_Mean
cells [7] = assay type: functional, cell-based
H4 = assay: Luminescence Cell-Based Dose Response HTS to Identify Activators of 5'UTR Stem-Loop Driven Prion Protein mRNA Translation in H4 Neuroglioblastoma Cells. [Related pubchem assays: 1829 (Project Summary), 1814 (Primary HTS)]; assay type: functional; conditions: Homo sapiens
[8] = Luminescence Cell-Based Dose Confirmation HTS to Identify Activators of 5'UTR Stem-Loop Driven Alpha-Synuclein mRNA Translation in H4 Neuroglioblastoma Cells. [Related pubchem assays: 1829 (Project Summary), 1814 (Primary HTS)]; assay type: functional
cells [9] = assay type: functional, cell-based; remark: listed apart in the source
[10] = target: ADP-ribosylation factor GTPase-activating protein 1 (Rattus norvegicus, UniProt Q62848); assay: Fluorescence polarization-based biochemical high throughput dose response screening assay to identify inhibitors of ADP-ribosylation factor GTPase activating protein 1 (ARFGAP1).; assay type: functional
[11] = Luminescence Cell-Based Dose Response HTS to Identify Activators of Luciferase Translation or Activity in H4 […] Cells. [Related pubchem assays: 1829 (Project Summary), 1814 (Primary HTS)]; assay type: functional
[12] = target: 5-hydroxytryptamine receptor 2A (Mus musculus, UniProt P35363); assay type: functional, cell-based;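 also: CHO-K1 cells with tagged receptor and beta-arrestin; agonist potency measured as compound-induced activation of the receptor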
Mu-type opioid receptor = Mu-type opioid receptor (Homo sapiens, UniProt P35372); assay type: functional, cell-based;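 also: U2OS cells with beta-arrestin recruitment to OPRM1 by beta-gal complementation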
Paired box protein Pax-8 = Paired box protein Pax-8 (Homo sapiens, UniProt Q06710); assay: PAX8 transcriptional activity inhibition in RMG-I – RMG-I cells, luciferase, cherry-pick, dose response (AID 687027); assay type: functional, cell-based;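 also: luciferase reporter driven by Pax8 target thyroperoxidase promoter measured by SteadyGlo luminescence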
Vero = assay: cells; assay type: functional; conditions: Chlorocebus sabaeus
Beta Lactamase = Beta Lactamase (Pseudomonas aeruginosa, UniProt Q932Y6); assay: BLA reporter interference, concentration series – BLA reporter cells, FRET fluorescence, artefact control for NOD2-RIPK2 interaction inhibitor project, dose response (AID 651552); assay type: functional, cell-based
[13] = Fluorescence-based cell-based high throughput dose response assay for inhibitors of the interaction of nucleotide-binding oligomerization domain containing 2 (NOD2) and the receptor-interacting serine-threonine kinase 2 (RIPK2).; assay type: functional; conditions: Homo sapiens
[14] = general cell-killing toxicity readout – plate reader, dry powder samples, cytotoxicity control for PAX8 inhibitor project, dose response (AID 743021); assay type: functional, cell-based
[15] = target: Heat shock protein HSP 90-alpha (Homo sapiens, UniProt P07900); assay type: functional, organism-based
[16] = target: T4, Small ubiquitin-related modifier 1 (Homo sapiens, UniProt P63165); assay: SUMO1 protein-protein binding blockers, potency – biochemical, FRET, dose response (AID 624383); assay type: functional; conditions: read-out: IC50_Mean
[17] = target: T4, Small ubiquitin-related modifier 1; assay: SUMO1 protein interaction blockers, potency – biochemical, fluorescence polarization, uHTS hits, dose response (AID 624382); assay type: functional; conditions: read-out: IC50_Mean
[18] = activation of miR-122 Renilla sensor silencing – cell-based, Huh7 psiCHECK-miR122, Renilla luciferase, cherry-picked, dose response (AID 651956); assay type: functional;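 also: huh7 hepatoma cells stably carrying a psiCHECK-2 miR-122 sensor plasmid; renilla luciferase signal reporting endogenous miR-122 activity after 48 h compound exposure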
[19] = target: T5, Sentrin-specific protease 8 (Homo sapiens, UniProt Q96LD8); assay type: functional
T5 sequence (Q96LD8 whole entry): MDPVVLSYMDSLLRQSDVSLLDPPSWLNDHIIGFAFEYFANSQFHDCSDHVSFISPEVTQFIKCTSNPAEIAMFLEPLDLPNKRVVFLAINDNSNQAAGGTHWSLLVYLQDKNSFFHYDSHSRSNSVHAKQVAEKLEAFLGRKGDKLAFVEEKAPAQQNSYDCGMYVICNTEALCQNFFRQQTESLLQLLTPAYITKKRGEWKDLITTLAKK

[20] = target: T6, Replicative DNA helicase DnaB (Mycobacterium tuberculosis, UniProt P9WMR3); assay: DnaB intein splicing inhibitors, dose response, biochemical, cell-free fluorescence (AID 449749); assay type: functional
T6 sequence (P9WMR3 whole entry): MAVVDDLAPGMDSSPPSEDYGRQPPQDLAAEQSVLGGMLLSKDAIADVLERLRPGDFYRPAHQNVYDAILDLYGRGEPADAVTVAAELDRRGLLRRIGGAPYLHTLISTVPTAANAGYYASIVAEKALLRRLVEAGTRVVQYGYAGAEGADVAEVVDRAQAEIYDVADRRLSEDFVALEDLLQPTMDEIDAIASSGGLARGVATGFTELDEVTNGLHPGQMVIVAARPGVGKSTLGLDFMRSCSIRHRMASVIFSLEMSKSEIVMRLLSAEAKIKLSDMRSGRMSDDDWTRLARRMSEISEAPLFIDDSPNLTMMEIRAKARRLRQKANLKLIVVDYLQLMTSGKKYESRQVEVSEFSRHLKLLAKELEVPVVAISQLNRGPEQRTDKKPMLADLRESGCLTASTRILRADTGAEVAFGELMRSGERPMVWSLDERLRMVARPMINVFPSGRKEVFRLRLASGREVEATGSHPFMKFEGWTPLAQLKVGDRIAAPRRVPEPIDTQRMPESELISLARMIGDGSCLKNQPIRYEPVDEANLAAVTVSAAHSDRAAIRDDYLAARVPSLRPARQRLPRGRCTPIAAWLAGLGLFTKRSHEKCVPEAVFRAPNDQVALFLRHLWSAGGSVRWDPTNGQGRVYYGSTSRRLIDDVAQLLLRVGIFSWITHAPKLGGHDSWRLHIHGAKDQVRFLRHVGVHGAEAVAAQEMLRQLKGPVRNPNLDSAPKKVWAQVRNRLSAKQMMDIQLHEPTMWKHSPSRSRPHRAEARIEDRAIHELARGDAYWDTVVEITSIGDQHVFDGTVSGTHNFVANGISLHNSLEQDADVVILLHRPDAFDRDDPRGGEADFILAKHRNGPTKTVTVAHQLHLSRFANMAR

Protein RecA = target: T7, Protein RecA (Mycobacterium tuberculosis, UniProt P9WHJ3); assay: Fluorescence Cell-Free Homogeneous Dose Retest to Identify Inhibitors of RecA-Intein Splicing Activity. [Related pubchem assays (depositor defined):AID2097, AID2223, AID489010, AID492950]; assay type: functional
T7 sequence (P9WHJ3 whole entry): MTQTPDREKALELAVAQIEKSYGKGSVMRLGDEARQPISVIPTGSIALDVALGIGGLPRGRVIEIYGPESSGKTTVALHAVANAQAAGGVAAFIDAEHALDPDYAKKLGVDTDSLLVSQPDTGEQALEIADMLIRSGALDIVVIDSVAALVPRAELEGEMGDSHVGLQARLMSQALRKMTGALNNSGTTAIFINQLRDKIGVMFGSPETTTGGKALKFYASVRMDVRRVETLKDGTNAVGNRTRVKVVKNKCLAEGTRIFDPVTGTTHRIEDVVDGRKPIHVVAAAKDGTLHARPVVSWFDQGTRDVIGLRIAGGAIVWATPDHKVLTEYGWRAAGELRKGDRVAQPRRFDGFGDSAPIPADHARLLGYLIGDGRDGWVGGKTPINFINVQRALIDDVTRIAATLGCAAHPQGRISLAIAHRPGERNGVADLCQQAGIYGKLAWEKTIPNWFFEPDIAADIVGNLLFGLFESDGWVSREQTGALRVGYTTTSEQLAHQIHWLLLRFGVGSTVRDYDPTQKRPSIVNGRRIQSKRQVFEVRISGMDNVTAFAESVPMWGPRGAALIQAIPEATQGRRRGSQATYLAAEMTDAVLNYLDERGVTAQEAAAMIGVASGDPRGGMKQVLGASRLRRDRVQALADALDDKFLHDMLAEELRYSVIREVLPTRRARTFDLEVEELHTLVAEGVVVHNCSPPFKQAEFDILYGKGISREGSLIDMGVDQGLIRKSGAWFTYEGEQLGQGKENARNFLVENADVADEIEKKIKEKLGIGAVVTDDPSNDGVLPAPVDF

T4 sequence (P63165 whole entry): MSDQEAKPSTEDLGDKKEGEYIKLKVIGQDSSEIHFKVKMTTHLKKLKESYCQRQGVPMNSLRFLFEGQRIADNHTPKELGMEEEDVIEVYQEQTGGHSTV
Sequence of Paired box protein Pax-8 (Q06710 whole entry): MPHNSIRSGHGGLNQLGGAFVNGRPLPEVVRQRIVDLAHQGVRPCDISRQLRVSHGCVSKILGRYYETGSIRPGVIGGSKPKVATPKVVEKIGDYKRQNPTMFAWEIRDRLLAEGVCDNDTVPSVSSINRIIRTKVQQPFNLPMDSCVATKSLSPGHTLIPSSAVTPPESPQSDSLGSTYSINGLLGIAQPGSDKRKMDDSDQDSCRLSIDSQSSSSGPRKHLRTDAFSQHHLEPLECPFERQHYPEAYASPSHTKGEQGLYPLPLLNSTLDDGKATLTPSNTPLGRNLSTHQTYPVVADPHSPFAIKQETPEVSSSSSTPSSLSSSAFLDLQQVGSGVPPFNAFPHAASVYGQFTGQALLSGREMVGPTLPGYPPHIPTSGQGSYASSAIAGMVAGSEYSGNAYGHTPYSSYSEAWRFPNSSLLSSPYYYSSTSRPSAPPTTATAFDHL
Sequence of Sentrin-specific protease 1 (Q9P0U3 whole entry, the tested form may be a part): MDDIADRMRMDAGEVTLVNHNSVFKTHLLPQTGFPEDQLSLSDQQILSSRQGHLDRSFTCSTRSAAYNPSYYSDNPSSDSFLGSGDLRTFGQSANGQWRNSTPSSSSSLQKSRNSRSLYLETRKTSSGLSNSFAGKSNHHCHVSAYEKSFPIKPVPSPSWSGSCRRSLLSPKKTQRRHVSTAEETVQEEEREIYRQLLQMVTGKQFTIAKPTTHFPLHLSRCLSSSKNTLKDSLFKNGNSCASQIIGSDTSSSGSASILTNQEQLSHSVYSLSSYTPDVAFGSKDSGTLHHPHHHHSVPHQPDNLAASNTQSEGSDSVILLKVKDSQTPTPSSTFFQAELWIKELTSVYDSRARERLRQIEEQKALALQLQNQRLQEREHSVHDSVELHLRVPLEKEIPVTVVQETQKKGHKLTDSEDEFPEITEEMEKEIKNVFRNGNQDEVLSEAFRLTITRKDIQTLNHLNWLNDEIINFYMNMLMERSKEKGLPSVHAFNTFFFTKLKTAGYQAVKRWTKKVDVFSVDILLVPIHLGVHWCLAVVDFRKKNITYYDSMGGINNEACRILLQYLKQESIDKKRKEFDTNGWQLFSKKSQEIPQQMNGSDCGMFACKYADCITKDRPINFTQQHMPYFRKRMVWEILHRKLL
Sequence of ADP-ribosylation factor GTPase-activating protein 1 (Q62848 whole entry): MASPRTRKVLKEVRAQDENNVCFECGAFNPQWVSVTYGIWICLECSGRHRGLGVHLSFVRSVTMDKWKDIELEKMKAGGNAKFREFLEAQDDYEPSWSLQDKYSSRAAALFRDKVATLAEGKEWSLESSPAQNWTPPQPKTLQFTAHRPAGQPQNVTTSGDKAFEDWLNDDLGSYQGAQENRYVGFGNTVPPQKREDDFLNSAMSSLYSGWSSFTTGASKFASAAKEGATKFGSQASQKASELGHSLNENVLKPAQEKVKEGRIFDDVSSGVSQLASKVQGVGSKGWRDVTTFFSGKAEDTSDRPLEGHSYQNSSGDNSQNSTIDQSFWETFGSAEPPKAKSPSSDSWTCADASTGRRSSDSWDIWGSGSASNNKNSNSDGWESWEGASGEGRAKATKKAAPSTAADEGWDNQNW
Sequence of Mu-type opioid receptor (P35372 whole entry): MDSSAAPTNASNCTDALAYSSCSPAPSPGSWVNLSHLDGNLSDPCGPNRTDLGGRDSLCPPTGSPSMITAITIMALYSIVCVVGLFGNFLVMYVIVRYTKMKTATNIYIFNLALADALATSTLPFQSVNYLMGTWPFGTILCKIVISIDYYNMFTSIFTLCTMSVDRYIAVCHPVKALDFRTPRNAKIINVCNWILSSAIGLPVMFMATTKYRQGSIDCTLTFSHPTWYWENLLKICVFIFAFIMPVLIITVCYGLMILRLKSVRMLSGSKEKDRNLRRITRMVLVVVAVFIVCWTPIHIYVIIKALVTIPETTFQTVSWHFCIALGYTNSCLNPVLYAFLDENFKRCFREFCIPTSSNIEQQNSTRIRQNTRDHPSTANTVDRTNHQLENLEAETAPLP
Sequence of Dual specificity protein phosphatase 3 (P51452 whole entry): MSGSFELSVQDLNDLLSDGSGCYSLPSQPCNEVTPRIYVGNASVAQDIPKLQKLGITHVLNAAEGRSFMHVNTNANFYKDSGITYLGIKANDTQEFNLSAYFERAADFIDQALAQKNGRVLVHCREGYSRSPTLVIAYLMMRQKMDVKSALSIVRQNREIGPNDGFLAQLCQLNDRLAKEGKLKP
Sequence of Beta Lactamase (Q932Y6 whole entry, the tested form may be a part): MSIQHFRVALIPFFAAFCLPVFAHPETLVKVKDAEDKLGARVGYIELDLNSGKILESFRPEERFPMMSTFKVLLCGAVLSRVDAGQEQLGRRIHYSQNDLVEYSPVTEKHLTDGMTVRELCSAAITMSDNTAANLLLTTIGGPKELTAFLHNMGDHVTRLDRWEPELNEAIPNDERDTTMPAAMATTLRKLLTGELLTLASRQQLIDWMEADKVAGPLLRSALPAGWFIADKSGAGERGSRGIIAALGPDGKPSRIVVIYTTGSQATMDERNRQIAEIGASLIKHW
Sequence of Low molecular weight phosphotyrosine protein phosphatase (P24666 whole entry): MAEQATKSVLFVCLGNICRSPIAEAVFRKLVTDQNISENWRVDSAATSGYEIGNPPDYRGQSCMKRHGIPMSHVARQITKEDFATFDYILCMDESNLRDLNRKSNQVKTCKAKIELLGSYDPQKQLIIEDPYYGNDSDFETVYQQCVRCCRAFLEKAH
Sequence of 5-hydroxytryptamine receptor 2A (P35363 whole entry): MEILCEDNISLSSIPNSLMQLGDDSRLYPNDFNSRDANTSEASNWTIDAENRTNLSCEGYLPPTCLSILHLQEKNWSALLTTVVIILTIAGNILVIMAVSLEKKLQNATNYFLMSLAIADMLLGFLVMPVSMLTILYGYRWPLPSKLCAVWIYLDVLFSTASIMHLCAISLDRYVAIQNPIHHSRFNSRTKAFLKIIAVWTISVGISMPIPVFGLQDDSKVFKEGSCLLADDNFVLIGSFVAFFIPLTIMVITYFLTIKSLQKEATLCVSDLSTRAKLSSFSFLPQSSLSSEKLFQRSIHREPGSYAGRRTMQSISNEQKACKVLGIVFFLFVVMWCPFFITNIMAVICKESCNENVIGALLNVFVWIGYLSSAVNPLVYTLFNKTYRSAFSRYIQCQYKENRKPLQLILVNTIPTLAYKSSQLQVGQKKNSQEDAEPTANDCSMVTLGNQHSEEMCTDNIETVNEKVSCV

COc1ccc(OC)c(CCNC(=O)c2ccc3c(=O)[nH]c4c(C(=O)NC(C)C)sc(=S)n4c3c2)c1
IC50 [1]: 20.9 µM (inactive)

O=C(/C=C/c1ccc(Cl)cc1)NC(=S)Nc1ccc(C(=O)O)cc1
IC50 [2]: 5.89 µM (active)
IC50 [3]: 9.21 µM (active)
IC50 [4]: 15.4 µM (active)
IC50 [5]: 44.2 µM (inactive)
IC50 [6]: 5.4 µM (active)

Cc1ccc2nc(SCC(=O)c3ccccc3)nc(=O)n2c1
EC50 (cells [7]): 37.8 µM (active)
EC50 (H4): 24 µM (active)
EC50 [8]: 33.8 µM (active)
EC50 (cells [9]): > 350 µM (not active)
IC50 [10]: 52.5 µM (inactive)
EC50 [11]: 11 µM (active)

COc1cccc(OCC(O)CN2CCN(c3ccccn3)CC2)c1 (stereo unspecified)
EC50 [12]: 1.46 µM (active)
EC50 (Mu-type opioid receptor): 92.4 µM (inactive)

COC(=O)C1=C(C(=O)OC)C2OC1c1cc3ccccc3cc12
AC50 (Paired box protein Pax-8): 5.41 µM (active)
CC50 (Vero): > 25 µM (active)
IC50 (Beta Lactamase): 10.1 µM (inactive)
IC50 [13]: 1.63 µM (active)
AC50 [14]: 23 µM (active)
AC50 [15]: 1.59 µM (active)

CC(=O)c1cccc(NC(=O)c2cccc3c(-c4cccc(C(N)=O)c4)coc23)c1
IC50 [16]: 20.4 µM (inactive)
IC50 [17]: > 66.6 µM (inactive)

COc1cccc(NC(=O)N(C)C[C@@H]2Oc3ncc(C#Cc4ccncc4)cc3C(=O)N([C@@H](C)CO)C[C@H]2C)c1
AC50 [18]: 36.1 µM (active)

COc1ccc(-c2cc(=O)n(CCC#N)[nH]2)cc1
IC50 [19]: 50.8 µM (active)
AC50 [20]: 2.05 µM (active)
EC50 (Protein RecA): 1.02 µM (active)
